We go through 34 compounds from ChEMBL document CHEMBL5543072, “Discovery of a novel lead characterized by a stilbene-extended scaffold against sepsis as soluble epoxide hydrolase inhibitors” (Eur J Med Chem, 2024).

Structures are written as SMILES. pIC50: −log10 of the molar value. Calls of active or inactive are those of the source. No cut-off for these calls is given here.

The target of data set [1] is T1, Bifunctional epoxide hydrolase 2 (Mus musculus, UniProt P34914).
T1 sequence (P34914 whole entry): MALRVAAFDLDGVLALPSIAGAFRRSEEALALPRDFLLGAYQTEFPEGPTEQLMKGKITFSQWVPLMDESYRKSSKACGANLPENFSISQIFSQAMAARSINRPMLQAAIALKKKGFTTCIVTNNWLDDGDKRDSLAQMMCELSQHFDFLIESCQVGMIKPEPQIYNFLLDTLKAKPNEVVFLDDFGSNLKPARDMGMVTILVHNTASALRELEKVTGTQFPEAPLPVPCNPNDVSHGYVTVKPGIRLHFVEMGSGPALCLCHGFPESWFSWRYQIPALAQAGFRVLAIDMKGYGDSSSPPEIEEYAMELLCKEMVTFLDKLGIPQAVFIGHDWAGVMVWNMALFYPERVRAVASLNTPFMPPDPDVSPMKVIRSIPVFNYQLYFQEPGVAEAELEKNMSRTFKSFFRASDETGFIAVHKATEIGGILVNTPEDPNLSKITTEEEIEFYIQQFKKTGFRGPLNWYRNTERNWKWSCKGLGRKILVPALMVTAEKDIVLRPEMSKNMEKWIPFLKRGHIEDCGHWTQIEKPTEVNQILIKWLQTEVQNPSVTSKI

In data set [2] the test system is Mus musculus. Kind of data set: Protection against LPS-induced sepsis in C57BL/6J mouse model assessed as survival rate at 5 mg/kg, iv measured after 24 hrs relative to control. In kind it is functional.
The test system of data set [3] is Mus musculus. Kind of data set: Protection against LPS-induced sepsis in C57BL/6J mouse model assessed as survival rate at 5 mg/kg, iv measured after 48 hrs relative to control. In kind it is functional.
Data set [4] relates to Mus musculus. Nature of the data set: Protection against LPS-induced sepsis in C57BL/6J mouse model assessed as survival rate at 5 mg/kg, iv measured after 72 hrs relative to control. In kind it is functional.
Data set [5] deals with Mus musculus. Kind of data set: Protection against LPS-induced sepsis in C57BL/6J mouse model assessed as delay in death time at 0.5 to 5 mg/kg, ip measured upto 72 hrs. In kind it is functional, organism-based. The following applies: dose 0.5-5 mg/kg.
Data set [6] in a line: Toxicity in LPS-induced sepsis C57BL/6J mouse model assessed as effect on survival rate at 0.5 to 5 mg/kg, ip measured upto 72 hrs. Conditions: in vivo, dose 0.5-5 mg/kg. In kind it is organism-based.
The nature of data set [7]: Cytotoxicity in HEK293T cells assessed as cell viability at 5 uM incubated for 48 hrs by CCK8 assay relative to control. In kind it is toxicity, cell-based, HEK-293T. The following applies: human, read-out: Activity. A general note: Formazan colour is commonly taken as a measure of viable cells.
A short description of data set [8]: Cytotoxicity in HEK293T cells assessed as cell viability at 50 uM incubated for 48 hrs by CCK8 assay relative to control. In kind it is toxicity, cell-based, HEK-293T. Conditions: human, read-out: Activity.
The nature of data set [9]: Cytotoxicity against human HepG2 cells assessed as cell viability at 5 uM incubated for 48 hrs by CCK8 assay relative to control. In kind it is toxicity, cell-based. The following applies: read-out: Activity.
The nature of data set [10]: Cytotoxicity against human HepG2 cells assessed as cell viability at 50 uM incubated for 48 hrs by CCK8 assay relative to control. Conditions: read-out: Activity. In kind it is toxicity, cell-based.
Data set [11] has as its target T2, Bifunctional epoxide hydrolase 2 (Homo sapiens, UniProt P34913).
T2 sequence (P34913 whole entry): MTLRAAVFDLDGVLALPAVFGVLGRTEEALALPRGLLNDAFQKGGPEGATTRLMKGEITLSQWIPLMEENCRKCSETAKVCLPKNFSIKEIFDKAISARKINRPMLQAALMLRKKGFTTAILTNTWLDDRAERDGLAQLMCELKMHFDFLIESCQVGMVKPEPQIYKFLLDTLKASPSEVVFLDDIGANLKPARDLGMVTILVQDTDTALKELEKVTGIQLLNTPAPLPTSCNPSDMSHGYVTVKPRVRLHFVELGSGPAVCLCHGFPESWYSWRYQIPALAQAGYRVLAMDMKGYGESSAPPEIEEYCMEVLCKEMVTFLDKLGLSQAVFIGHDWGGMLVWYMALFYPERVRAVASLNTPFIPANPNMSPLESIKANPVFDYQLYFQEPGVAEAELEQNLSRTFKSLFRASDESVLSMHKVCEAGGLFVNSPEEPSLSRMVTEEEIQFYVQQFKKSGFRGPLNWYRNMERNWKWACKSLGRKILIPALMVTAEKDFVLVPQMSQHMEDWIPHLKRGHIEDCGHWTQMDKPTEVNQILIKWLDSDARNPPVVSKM

In data set [12] the test system is Mus musculus. Kind of data set: Protection against LPS-induced sepsis in C57BL/6J mouse model assessed as […] at 5 mg/kg, iv measured after 32 hrs relative to control. In kind it is functional.

The term pIC50 denotes the IC50 on a negative log10 scale, so that one unit is a factor of ten. High values mean a small IC50, low ones a large IC50.

Consider `COc1cc(/C=C/c2ccc(NC(=O)N(C)C)cc2)cc(OC)c1`, for which, in data set [1], the negative logarithm of the IC50 (pIC50) was 5.28.
The same measure, in the same setting: the value for `O=C(Cn1c2ccccc2c2ccccc21)Nc1cccc(/C=C/c2ccc(NC(=O)NCC3CCOCC3)cc2)c1` was 8.48.
In the case of `CC[C@H](C)C(=O)N1CCC(NC(=O)Nc2ccc(OC(F)(F)F)c(F)c2)CC1`, the survival at 5 mg/kg amounted to 30% in the data set on Mus musculus [2], 0% with Mus musculus [3] and 0% in the data set on Mus musculus [4].
On to `COc1cc(/C=C/c2ccc(NC(=O)NCC3CCN(C)CC3)cc2)cc(OC)c1`, for which, in data set [1], the negative-log IC50 (pIC50) was 6.04.
On the same count and under the same terms, under `CC(C)CNC(=O)Nc1cccc(/C=C/c2ccc3c(c2)OCO3)c1` stands 8.69.
The same measure, in the same setting: under `O=C(Cc1ccncc1)Nc1cccc(/C=C/c2ccc(NC(=O)NCC3CCOCC3)cc2)c1` stands 8.85; under `COc1ccc(/C=C/c2ccc(NC(=O)NCC(C)C)cc2)cc1O`, 8.32.
The same measure, in the same setting: the value for `O=C(NCC1CCOCC1)Nc1cccc(/C=C/c2ccc3c(c2)OCO3)c1` was 8.56.
In turn, `Cc1cc(NC(=O)NCC(C)C)ccc1/C=C/c1ccc2c(c1)OCO2` showed a negative-log IC50 (pIC50) in data set [1] of 8.49.
`O=C(Cc1ccccn1)Nc1ccc(/C=C/c2ccc(NC(=O)NCC3CCOCC3)cc2)cc1` showed a negative logarithm of the IC50 (pIC50) in [1] of 8.46.
The same measure, in the same setting: under `COc1cc(/C=C/c2ccc(NC(=O)NCC3CCOCC3)cc2)cc(OC)c1` stands 8.60; under `CC(C)CCNC(=O)Nc1ccc(/C=C/c2ccc3c(c2)OCO3)cc1`, 8.91.
For `CC(C)CCNC(=O)Nc1cccc(/C=C/c2ccc3c(c2)OCO3)c1`, the pIC50 in data set [1] is 7.63.
The compound `O=C(NCC1CCOCC1)Nc1ccc(/C=C/c2cccc(C(=O)NCc3ccccn3)c2)cc1` showed a negative logarithm of the IC50 (pIC50) in data set [1] of 8.24.
Still for that read-out and setting: the value for `Cc1cc(/C=C/c2ccc3c(c2)OCO3)ccc1NC(=O)NCC(C)C` was 8.49.
Consider `O=C(Cn1ccc2ccccc21)Nc1cccc(/C=C/c2ccc(NC(=O)NCC3CCOCC3)cc2)c1`, for which the negative-log IC50 (pIC50) in data set [1] is 8.90.
Regarding `CN1CCC(NC(=O)Nc2ccc(/C=C/c3ccc4c(c3)OCO4)cc2)CC1`, the negative logarithm of the IC50 (pIC50) in data set [1] is 5.59.
In the case of `O=C(NCC1CCOCC1)Nc1ccc(/C=C/c2ccc3c(c2)OCO3)cc1`, in the data set with Mus musculus [5], the outcome was Active. Also, the Activity entry in data set [6] is “Non-Toxic”. Moreover, the results for the viability at 48 h, 5 µM in data set [7] and in [9] were 98.2% and 82.8%, respectively. For the same compound, the viability at 48 h, 50 µM was 84.3% in data set [8] and 69% in data set [10]. For the same compound, the negative logarithm of the IC50 (pIC50) in [1] was 8.79; in data set [11], 8.32.
For `O=C(Cc1cccnc1)Nc1cccc(/C=C/c2ccc(NC(=O)NCC3CCOCC3)cc2)c1`, the figures for the survival at 5 mg/kg in the data set on Mus musculus [2], with Mus musculus [3] and in the data set with Mus musculus [4] were 70%, 20% and 0%, respectively. Also, the Activity with Mus musculus [12] was 0%. This compound had a pIC50 in [1] of 8.69.
For `CC(C)CNC(=O)Nc1ccc(/C=C/c2ccc3c(c2)OCO3)cc1`, the pIC50 in data set [1] was 8.57.
Compound `CCC(=O)N1CCN(C(=O)Nc2ccc(/C=C/c3ccc4c(c3)OCO4)cc2)CC1` showed a pIC50 in [1] of 6.70.
Still for that read-out and setting: under `O=C(NCC1CCOCC1)Nc1ccc(/C=C/c2cccc(NC(=O)c3ccccn3)c2)cc1` stands 8.07; under `CC(C)CNC(=O)Nc1ccc(/C=C/c2ccc3c(c2)OCO3)c(Cl)c1`, 8.34; under `O=C(Cc1ccccn1)Nc1cccc(NC(=O)c2ccc(NC(=O)NCC3CCOCC3)cc2)c1`, 7.17.
On to `C[C@@H]1C[C@H]2[C@@H]3CCC4=CC(=O)C=C[C@]4(C)[C@@]3(F)[C@@H](O)C[C@]2(C)[C@@]1(O)C(=O)CO` [DEXAMETHASONE], for which the survival at 5 mg/kg with Mus musculus [2], in the data set with Mus musculus [3] and in the data set on Mus musculus [4] was 100% throughout.
Consider `COc1cc(/C=C/c2ccc(CNC(=O)NCC(C)C)cc2)cc(OC)c1`, for which the pIC50 in [1] was 7.85.
On the same count and under the same terms, under `CC(C)CNC(=O)Nc1ccc(/C=C/c2ccc3c(c2)OCO3)c(F)c1` stands 8.17.
Still for that read-out and setting: under `CN1CCN(C(=O)Nc2ccc(/C=C/c3ccc4c(c3)OCO4)cc2)CC1` stands 5.56; under `CC(C)CNC(=O)Nc1ccc(/C=C/c2ccc3c(c2)OCO3)cc1F`, 8.91; under `CCC(=O)N1CCC(NC(=O)Nc2ccc(/C=C/c3ccc4c(c3)OCO4)cc2)CC1`, 8.10.
The same measure, in the same setting: the value for `COc1cc(/C=C/c2ccc(NC(=O)NCC(C)C)cc2)cc(OC)c1` was 8.72; that for `COc1cc(/C=C/c2cccc(NC(=O)NCC(C)C)c2)cc(OC)c1` was 7.35.
As to `O=C(Cc1ccc2ncccc2c1)Nc1cccc(/C=C/c2ccc(NC(=O)NCC3CCOCC3)cc2)c1`, the survival at 5 mg/kg in the data set on Mus musculus [2] turned out to be 80%; in the data set on Mus musculus [3], 0%; in the data set with Mus musculus [4], 0%. Further, the Activity with Mus musculus [12] is recorded as 0%. In addition, the pIC50 in [1] was 8.85.
As for `COc1cc(/C=C/c2cccc(NC(=O)NCC3CCOCC3)c2)cc(OC)c1`, in data set [1], the pIC50 was 7.04.
